In patent publication US6737383B1, “Herbicidal oxadiazolidines” (priority 1999, dated 2004):

What was measured:
[1] = system: bedstraw; test: Test B pre/postemergence bedstraw; type: in vivo, Galium aparine
Procedure, shortened: (§1)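 Test chemicals in a non-phytotoxic solvent mixture with surfactant were sprayed preemergence onto planted seeds and postemergence onto plants 2 to 18 cm tall (1- to 4-leaf stage). After twelve to sixteen days in a greenhouse, injury was visually rated against untreated controls from 0 (no effect) to 10 (complete control).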

[2] = system: blackgrass; test: Test B pre/postemergence blackgrass; type: in vivo, Alopecurus myosuroides
Procedure, shortened: as §1

[3] = system: surinam grass; test: Test B pre/postemergence surinam grass; type: in vivo, Brachiaria decumbens
Procedure, shortened: as §1

[4] = system: cocklebur; test: Test B pre/postemergence cocklebur; type: in vivo, Xanthium strumarium
Procedure, shortened: as §1

[5] = system: corn; test: Test B pre/postemergence corn; type: in vivo, Zea mays
Procedure, shortened: as §1

[6] = system: crabgrass; test: Test B pre/postemergence crabgrass; type: in vivo, Digitaria sanguinalis
Procedure, shortened: as §1

[7] = system: giant foxtail; test: Test B pre/postemergence giant foxtail; type: in vivo, Setaria faberii
Procedure, shortened: as §1

[8] = system: morningglory; test: Test B pre/postemergence morningglory; type: in vivo, Ipomoea hederacea
Procedure, shortened: as §1

[9] = system: pigweed; test: Test B pre/postemergence pigweed; type: in vivo, Amaranthus retroflexus; conditions: for Plant response rating, Redroot pigweed: Postemergence
Procedure, shortened: as §1

[10] = system: rape; test: Test B pre/postemergence rape; type: in vivo, Brassica napus
Procedure, shortened: as §1

[11] = system: soybean; test: Test B pre/postemergence soybean; type: in vivo, Glycine max; conditions: for Plant response rating, Soybean: Postemergence
Procedure, shortened: as §1

[12] = system: sugar beet; test: Test B pre/postemergence sugar beet; type: in vivo, Beta vulgaris; conditions: for Plant response rating, Sugarbeets: Postemergence
Procedure, shortened: as §1

[13] = system: velvetleaf; test: Test B pre/postemergence velvetleaf; type: in vivo, Abutilon theophrasti; conditions: for Plant response rating, Velvetleaf: Postemergence
Procedure, shortened: as §1

[14] = system: wheat; test: Test B pre/postemergence wheat; type: in vivo, Triticum aestivum; conditions: for Plant response rating, Wheat: Postemergence
Procedure, shortened: as §1

[15] = system: wild oat; test: Test B pre/postemergence wild oat; type: in vivo, Avena fatua; conditions: for Plant response rating, Wild oats: Postemergence
Procedure, shortened: as §1

[16] = system: purple nutsedge; test: Test B pre/postemergence purple nutsedge; type: in vivo, Cyperus rotundus
Procedure, shortened: as §1

[17] = Postemergence, Rate 62 g/ha, scale of 0 to 10, 0 is no effect, 10 is complete control
[18] = Postemergence, Rate 125 g/ha, scale 0 to 10, 0 is no effect, 10 is complete control
[19] = Preemergence, Rate 62 g/ha, scale 0 to 10 (0 no effect, 10 complete control)
[20] = Preemergence, Rate 125 g/ha, scale of 0 to 10 where 0 is no effect and 10 is complete control
[21] = Preemergence, Rate 500 g/ha, scale of 0 to 10 where 0 is no effect and 10 is complete control
[22] = Rate 250 g/ha, Postemergence, scale of 0 to 10 where 0 is no effect and 10 is complete control
[23] = Postemergence, Rate 500 g/ha, scale of 0 to 10 where 0 is no effect and 10 is complete control
[24] = Rate 500 g/ha, scale of 0 to 10 where 0 is no effect and 10 is complete control
[25] = Rate 250 g/ha, scale of 0 to 10 where 0 is no effect and 10 is complete control

CC(C)N(C(=O)n1oc(=O)n(COCc2ccccc2)c1=O)c1ccccc1 [Compound 579]
0: Bedstraw plant response rating [1, 17] | Bedstraw plant response rating [1, 18] | Bedstraw plant response rating [1, 19] | Bedstraw plant response rating [1, 20] | Bedstraw plant response rating (0 to 10 scale) ([1]; Preemergence, Rate 250 g/ha) | Bedstraw plant response rating [1, 21] | Blackgrass plant response rating [2, 17] | Blackgrass plant response rating [2, 18] | Blackgrass plant response rating [2, 19] | Blackgrass plant response rating [2, 20] | Blackgrass plant response rating (0 to 10 scale) ([2]; Preemergence, Rate 250 g/ha) | Blackgrass plant response rating [2, 21] | B. signalgrass plant response rating [3, 17] | B. signalgrass plant response rating [3, 18] | B. signalgrass plant response rating [3, 19] | B. signalgrass plant response rating [3, 20] | Cocklebur plant response rating [4, 17] | Cocklebur plant response rating [4, 18] | Plant response rating, Cocklebur [4, 23] | Cocklebur plant response rating [4, 19] | Cocklebur plant response rating [4, 20] | Cocklebur plant response rating (0 to 10 scale) ([4]; Preemergence, Rate 250 g/ha) | Cocklebur plant response rating [4, 21] | Plant response rating, Cocklebur [4, 22] | Corn plant response rating [5, 17] | Corn plant response rating [5, 18] | Plant response rating, Corn [5, 23] | Corn plant response rating [5, 19] | Corn plant response rating [5, 20] | Corn plant response rating (0 to 10 scale) ([5]; Preemergence, Rate 250 g/ha) | Plant response rating, Corn [5, 22] | Crabgrass plant response rating [6, 17] | Giant foxtail plant response rating [7, 17] | Morningglory plant response rating [8, 19] | Morningglory plant response rating [8, 20] | Morningglory plant response rating (0 to 10 scale) ([8]; Preemergence, Rate 250 g/ha) | Morningglory plant response rating [8, 21] | Redroot pigweed plant response rating [9, 19] | Redroot pigweed plant response rating [9, 20] | Plant response rating, Redroot pigweed [9, 25] | Rape plant response rating [10, 17] | Rape plant response rating [10, 18] | Rape plant response rating [10, 19] | Rape plant response rating [10, 20] | Rape plant response rating (0 to 10 scale) ([10]; Preemergence, Rate 250 g/ha) | Rape plant response rating [10, 21] | Plant response rating, Rape [10, 22] | Soybean plant response rating [11, 19] | Soybean plant response rating [11, 20] | Soybean plant response rating (0 to 10 scale) ([11]; Preemergence, Rate 250 g/ha) | Soybean plant response rating [11, 21] | Plant response rating, Sugarbeets [12, 24] | Sugarbeets plant response rating [12, 19] | Sugarbeets plant response rating [12, 20] | Sugarbeets plant response rating (0 to 10 scale) ([12]; Preemergence, Rate 250 g/ha) | Sugarbeets plant response rating [12, 21] | Plant response rating, Sugarbeets [12, 25] | Plant response rating, Velvetleaf [13, 24] | Velvetleaf plant response rating [13, 19] | Velvetleaf plant response rating [13, 20] | Velvetleaf plant response rating (0 to 10 scale) ([13]; Preemergence, Rate 250 g/ha) | Velvetleaf plant response rating [13, 21] | Plant response rating, Velvetleaf [13, 25] | Plant response rating, Wheat [14, 24] | Wheat plant response rating [14, 19] | Wheat plant response rating [14, 20] | Wheat plant response rating (0 to 10 scale) ([14]; Preemergence, Rate 250 g/ha) | Wheat plant response rating [14, 21] | Plant response rating, Wheat [14, 25] | Plant response rating, Wild oats [15, 24] | Wild oats plant response rating [15, 19] | Wild oats plant response rating [15, 20] | Wild oats plant response rating (0 to 10 scale) ([15]; Preemergence, Rate 250 g/ha) | Wild oats plant response rating [15, 21] | Plant response rating, Wild oats [15, 25] | Nutsedge plant response rating [16, 18] | Nutsedge plant response rating [16, 19] | Nutsedge plant response rating [16, 20] | Nutsedge plant response rating (0 to 10 scale) ([16]; Preemergence, Rate 250 g/ha) | Plant response rating, Nutsedge [16, 22]
5: Plant response rating, Blackgrass [2, 23] | Plant response rating, Giant foxtail [7, 22]
9: Giant foxtail plant response rating [7, 20]
7: Crabgrass plant response rating [6, 19] | Crabgrass plant response rating [6, 20] | Plant response rating, Giant foxtail [7, 23]
10: Plant response rating, Bedstraw [1, 22] | Crabgrass plant response rating (0 to 10 scale) ([6]; Preemergence, Rate 250 g/ha) | Crabgrass plant response rating [6, 21] | Giant foxtail plant response rating (0 to 10 scale) ([7]; Preemergence, Rate 250 g/ha) | Giant foxtail plant response rating [7, 21] | Morningglory plant response rating [8, 17] | Morningglory plant response rating [8, 18] | Plant response rating, Morningglory [8, 23] | Plant response rating, Morningglory [8, 22]
6: Crabgrass plant response rating [6, 18] | Plant response rating, Crabgrass [6, 22]
2: Plant response rating, Blackgrass [2, 22] | Plant response rating, B. signalgrass [3, 23] | B. signalgrass plant response rating (0 to 10 scale, 0 is no effect, 10 is complete control) ([3]; Preemergence, Rate 250 g/ha) | Plant response rating, B. signalgrass [3, 22] | Giant foxtail plant response rating [7, 18] | Redroot pigweed plant response rating (0 to 10 scale) ([9]; Preemergence, Rate 250 g/ha)
3: B. signalgrass plant response rating [3, 21] | Corn plant response rating [5, 21] | Plant response rating, Redroot pigweed [9, 24] | Redroot pigweed plant response rating [9, 21] | Plant response rating, Rape [10, 23] | Plant response rating, Soybean [11, 25] | Nutsedge plant response rating [16, 21]
4: Plant response rating, Soybean [11, 24]
8: Plant response rating, Crabgrass [6, 23] | Giant foxtail plant response rating [7, 19]
